Results reported in patent US11091479B2, “Triazolopyridin-3-ones or their salts and pharmaceutical compositions comprising the same” (YUHAN CORPORATION, priority 2018, dated 2021).
Structures can show the parent of a compound that is named as a salt.

What was measured:
Type in all cases: biochemical
[1] = molecular target: T1, recombinant human VAP-1 (Homo sapiens, UniProt Q16853); test: Activity on recombinant human VAP-1, HRP-coupled Amplex Red hydrogen peroxide assay, benzylamine substrate; conditions: 30 min incubation at 37° C., 1 mM benzylamine, read-out: Inhibitory Activity (IC50, nM) human VAP-1
T1 construct: purchased R&D systems
T1 sequence (Q16853 1-763): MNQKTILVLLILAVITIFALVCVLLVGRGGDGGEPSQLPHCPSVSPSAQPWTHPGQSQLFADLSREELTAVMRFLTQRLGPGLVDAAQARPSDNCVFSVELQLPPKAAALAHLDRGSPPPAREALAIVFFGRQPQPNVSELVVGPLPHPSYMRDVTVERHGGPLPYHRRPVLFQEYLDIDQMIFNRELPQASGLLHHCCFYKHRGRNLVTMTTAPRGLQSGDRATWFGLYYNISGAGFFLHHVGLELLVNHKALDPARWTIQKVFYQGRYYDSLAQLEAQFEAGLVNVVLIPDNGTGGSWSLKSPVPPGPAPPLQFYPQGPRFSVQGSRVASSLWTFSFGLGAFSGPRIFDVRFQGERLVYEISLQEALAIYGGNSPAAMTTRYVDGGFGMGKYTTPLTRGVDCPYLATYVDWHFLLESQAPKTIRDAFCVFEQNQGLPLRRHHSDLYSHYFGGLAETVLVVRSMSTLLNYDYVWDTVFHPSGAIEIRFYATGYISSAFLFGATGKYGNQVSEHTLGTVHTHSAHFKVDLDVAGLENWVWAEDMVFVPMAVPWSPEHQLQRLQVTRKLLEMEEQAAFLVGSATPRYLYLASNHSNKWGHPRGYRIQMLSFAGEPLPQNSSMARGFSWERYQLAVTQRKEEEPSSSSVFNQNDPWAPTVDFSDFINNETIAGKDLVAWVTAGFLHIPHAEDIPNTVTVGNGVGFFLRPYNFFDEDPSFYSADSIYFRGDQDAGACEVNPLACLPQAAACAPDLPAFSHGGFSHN
How it was run: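 Recombinant human VAP-1 in 50 mM sodium phosphate pH 7.4 preincubated with compound for 30 min at 37 °C, then 1 mM benzylamine, 200 uM Amplex Red and 1 U/mL HRP added. Resorufin fluorescence (ex 544/em 590 nm) followed over 1-2 h; % signal-rate decrease vs DMSO control, 8-point 4-parameter fit for IC50.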

[2] = molecular target: T2, recombinant human MAO-A (monoamine oxidase-A) (Homo sapiens, UniProt P21397); test: Activity on recombinant human MAO-A, method similar to VAP-1 assay, 0.5 mM tyramine substrate; conditions: read-out: Inhibitory Activity (IC50, nM) MAO-A
T2 construct: purchased Sigma-Aldrich
T2 sequence (P21397 1-527): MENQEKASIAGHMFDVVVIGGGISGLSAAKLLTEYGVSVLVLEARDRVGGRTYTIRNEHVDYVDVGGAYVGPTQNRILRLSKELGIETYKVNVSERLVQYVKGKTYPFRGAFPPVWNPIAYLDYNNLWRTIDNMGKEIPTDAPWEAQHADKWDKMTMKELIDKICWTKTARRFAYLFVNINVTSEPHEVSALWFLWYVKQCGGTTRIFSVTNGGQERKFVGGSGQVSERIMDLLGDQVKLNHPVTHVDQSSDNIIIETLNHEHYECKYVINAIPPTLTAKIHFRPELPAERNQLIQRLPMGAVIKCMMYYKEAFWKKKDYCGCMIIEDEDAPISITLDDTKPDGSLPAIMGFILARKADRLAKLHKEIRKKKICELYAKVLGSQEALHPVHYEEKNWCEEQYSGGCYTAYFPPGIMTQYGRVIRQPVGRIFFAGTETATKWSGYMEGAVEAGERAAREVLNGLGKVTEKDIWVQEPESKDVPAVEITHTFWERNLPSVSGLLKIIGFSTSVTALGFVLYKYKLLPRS
How it was run: (§1)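 Amplex Red/HRP-coupled H2O2 fluorescence assay run as for VAP-1: enzyme in 50 mM sodium phosphate pH 7.4 preincubated with compound 30 min at 37 °C, then substrate (putrescine for DAO, benzylamine for MAO-B, tyramine for MAO-A) added with 200 uM Amplex Red, 1 U/mL HRP. Signal rate over 1-2 h; IC50 from 4-parameter logistic fit.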

[3] = molecular target: T3, recombinant human MAO-B (monoamine oxidase-B) (Homo sapiens, UniProt P27338); test: Activity on recombinant human MAO-B, method similar to VAP-1 assay, 1 mM benzylamine substrate; conditions: read-out: Inhibitory Activity (IC50, nM) MAO-B
T3 construct: purchased Sigma-Aldrich
T3 sequence (P27338 1-520): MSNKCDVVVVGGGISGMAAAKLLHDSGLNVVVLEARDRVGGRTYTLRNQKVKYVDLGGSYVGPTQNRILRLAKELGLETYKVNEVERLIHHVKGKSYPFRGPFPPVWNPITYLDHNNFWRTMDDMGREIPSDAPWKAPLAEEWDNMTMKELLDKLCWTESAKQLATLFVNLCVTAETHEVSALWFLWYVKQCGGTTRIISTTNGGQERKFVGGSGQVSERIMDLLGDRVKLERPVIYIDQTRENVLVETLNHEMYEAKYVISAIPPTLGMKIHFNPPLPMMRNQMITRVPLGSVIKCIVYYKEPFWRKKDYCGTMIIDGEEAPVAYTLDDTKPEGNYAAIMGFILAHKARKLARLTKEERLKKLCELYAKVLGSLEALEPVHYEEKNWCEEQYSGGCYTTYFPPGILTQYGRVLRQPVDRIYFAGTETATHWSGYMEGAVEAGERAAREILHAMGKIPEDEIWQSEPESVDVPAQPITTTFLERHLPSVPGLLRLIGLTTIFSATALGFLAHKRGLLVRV
How it was run: as §1

[4] = molecular target: T4, recombinant human DAO (diamine oxidase) (Homo sapiens, UniProt P19801); test: Activity on recombinant human DAO, method similar to VAP-1 assay, 1 mM putrescine substrate; conditions: read-out: Inhibitory Activity (IC50, nM) DAO
T4 construct: purchased R&D systems
T4 sequence (P19801 20-751): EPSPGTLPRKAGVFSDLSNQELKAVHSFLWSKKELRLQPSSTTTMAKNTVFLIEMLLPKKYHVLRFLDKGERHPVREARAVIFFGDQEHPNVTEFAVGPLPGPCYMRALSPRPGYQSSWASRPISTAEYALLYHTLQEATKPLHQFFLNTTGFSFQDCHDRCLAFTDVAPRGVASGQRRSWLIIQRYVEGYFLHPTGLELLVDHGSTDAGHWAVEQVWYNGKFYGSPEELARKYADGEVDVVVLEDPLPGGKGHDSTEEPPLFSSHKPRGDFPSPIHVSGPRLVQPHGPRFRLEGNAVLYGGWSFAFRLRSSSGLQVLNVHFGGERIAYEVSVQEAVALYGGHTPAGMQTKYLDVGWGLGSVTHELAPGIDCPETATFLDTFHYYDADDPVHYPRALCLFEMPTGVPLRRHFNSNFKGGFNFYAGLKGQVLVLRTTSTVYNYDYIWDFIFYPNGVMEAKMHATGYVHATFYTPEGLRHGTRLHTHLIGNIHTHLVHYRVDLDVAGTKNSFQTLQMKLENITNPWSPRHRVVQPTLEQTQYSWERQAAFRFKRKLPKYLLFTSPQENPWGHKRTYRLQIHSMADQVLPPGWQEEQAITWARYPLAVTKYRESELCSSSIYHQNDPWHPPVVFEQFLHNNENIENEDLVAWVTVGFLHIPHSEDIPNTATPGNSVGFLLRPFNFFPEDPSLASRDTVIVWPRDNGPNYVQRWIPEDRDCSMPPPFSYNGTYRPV
How it was run: as §1

NC/C(=C\F)Cn1nc2cc(-c3ccc4nonc4c3)ccn2c1=O [Example 38, 2-[(2E)-2-(aminomethyl)-3-fluoroprop-2-en-1-yl]-7-(2,1,3-benzoxadiazol-5-yl)[1,2,4]triazolo[4,3-a]pyridin-3(2H)-one hydrochloride]
IC50 [1]: 0.2 nM | IC50 [2]: 3500 nM | IC50 [3]: < 10 nM | IC50 [4]: 0.4 nM

CN(C)Cc1ccccc1-c1ccn2c(=O)n(C/C(=C/F)CN)nc2c1 [Example 23, 2-[(2E)-2-(aminomethyl)-3-fluoroprop-2-en-1-yl]-7-2-[(dimethylamino)methyl]phenyl[1,2,4]triazolo[4,3-a]pyridin-3(2H)-one hydrochloride]
IC50 [1]: 7 nM | IC50 [2]: > 10000 nM | IC50 [3]: > 10000 nM | IC50 [4]: 37 nM

NC/C(=C\F)Cn1nc2cc(-c3ccc4nn[nH]c4c3)ccn2c1=O [Example 39, 2-[(2E)-2-(aminomethyl)-3-fluoroprop-2-en-1-yl]-7-(1H-benzotriazol-6-yl)[1,2,4]triazolo[4,3-a]pyridin-3(2H)-one hydrochloride]
IC50 [1]: 0.1 nM | IC50 [2]: 96000 nM | IC50 [3]: 1100 nM | IC50 [4]: 0.2 nM

NC/C(=C\F)Cn1nc2cc(-c3ccc(-c4noc(C5CC5)n4)cc3)ccn2c1=O [Example 29, 2-[(2E)-2-(aminomethyl)-3-fluoroprop-2-en-1-yl]-7-[4-(5-cyclopropyl-1,2,4-oxadiazol-3-yl)phenyl][1,2,4]triazolo[4,3-a]pyridin-3(2H)-one hydrochloride]
IC50 [1]: 0.4 nM | IC50 [2]: 44000 nM | IC50 [3]: 380 nM | IC50 [4]: 4 nM

CN(C)c1ccc(-c2ccn3c(=O)n(CC(CN)=C(F)F)nc3c2)cn1 [Example 51, 2-[2-(aminomethyl)-3,3-difluoro-allyl]-7-[6-(dimethylamino)-3-pyridyl]-[1,2,4]triazolo[4,3-a]pyridin-3-one trifluoroacetate]
IC50 [1]: 0.4 nM | IC50 [2]: > 100000 nM | IC50 [3]: 150 nM | IC50 [4]: 17 nM

CN(C)c1ccc(-c2ccn3c(=O)n(C/C(=C/F)CN)nc3c2)cn1 [Example 32, 2-[(2E)-2-(aminomethyl)-3-fluoroprop-2-en-1-yl]-7-[6-(dimethylamino)pyridin-3-yl][1,2,4]triazolo[4,3-a]pyridin-3(2H)-one hydrochloride]
IC50 [1]: 0.4 nM | IC50 [2]: > 100000 nM | IC50 [3]: 19 nM | IC50 [4]: 24 nM

NC/C(=C\F)Cn1nc2cc(-c3ccc4cn[nH]c4c3)ccn2c1=O [Example 37, 2-[(2E)-2-(aminomethyl)-3-fluoroprop-2-en-1-yl]-7-(1H-indazol-6-yl)[1,2,4]triazolo[4,a]pyridin-3(2H)-one hydrochloride]
IC50 [1]: 0.1 nM | IC50 [2]: 26000 nM | IC50 [3]: 190 nM | IC50 [4]: 0.3 nM

Cc1cc(-c2ccc3nn(C/C(=C/F)CN)c(=O)n3c2)cc2c1NC(=O)CC2 [Example 17, 6-[2-[(2E)-2-(aminomethyl)-3-fluoroprop-2-en-1-yl]-3-oxo-2,3-dihydro[1,2,4]triazolo[4,3-a]pyridin-6-yl]-8-methyl-3,4-dihydroquinolin-2(1H)-one hydrochloride]
IC50 [1]: 0.6 nM | IC50 [2]: > 100000 nM | IC50 [3]: 290 nM | IC50 [4]: 0.3 nM

NCC(Cn1nc2cc(-c3ccc(N4CCNCC4)cc3)ccn2c1=O)=C(F)F [Example 49, 2-[2-(aminomethyl)-3,3-difluoro-allyl]-7-(4-piperazin-1-ylphenyl)-[1,2,4]triazolo[4,3-a]pyridin-3-one ditrifluoroacetate]
IC50 [1]: 1.6 nM | IC50 [2]: > 100000 nM | IC50 [3]: 53000 nM | IC50 [4]: 390 nM

CC(=O)Nc1nc2cc(-c3ccc4nn(C/C(=C/F)CN)c(=O)n4c3)ccc2s1 [Example 15, N-[5-[2-[(2E)-2-(aminomethyl)-3-fluoroprop-2-en-1-yl]-3-oxo-2,3-dihydro[1,2,4]triazolo[4,3-a]pyridin-6-yl]-1,3-benzothiazol-2-yl]acetamide trifluoroacetate]
IC50 [1]: 9.3 nM | IC50 [2]: > 100000 nM | IC50 [3]: 597 nM | IC50 [4]: < 100 nM

NC/C(=C\F)Cn1nc2ccc(-c3cccc(-c4nc[nH]n4)c3)cn2c1=O [Example 6, 2-[(2E)-2-(aminomethyl)-3-fluoroprop-2-en-1-yl]-6-[3-(1H-1,2,4-triazol-3-yl)phenyl][1,2,4]triazolo[4,3-a]pyridin-3(2H)-one]
IC50 [1]: 2.1 nM | IC50 [2]: > 100000 nM | IC50 [3]: 73 nM | IC50 [4]: < 100 nM

CS(=O)(=O)c1ccc(-c2ccn3c(=O)n(CC(CN)=C(F)F)nc3c2)cc1 [Example 48, 2-[2-(aminomethyl)-3,3-difluoro-allyl]-7-(4-methylsulfonylphenyl)-[1,2,4]triazolo[4,3-a]pyridin-3-one trifluoroacetate]
IC50 [1]: 0.1 nM | IC50 [2]: > 100000 nM | IC50 [3]: 800 nM | IC50 [4]: 100 nM

NCC(Cn1nc2cc(-c3ccc4c(c3)OCO4)ccn2c1=O)=C(F)F [Example 52, 2-[2-(aminomethyl)-3,3-difluoro-allyl]-7-(1,3-benzodioxol-5-yl)-[1,2,4]triazolo[4,3-a]pyridin-3-one trifluoroacetate]
IC50 [1]: 0.3 nM | IC50 [2]: > 100000 nM | IC50 [3]: 37 nM | IC50 [4]: 160 nM

Cn1cc(C#Cc2ccn3c(=O)n(CC(CN)=C(F)F)nc3c2)cn1 [Example 56, 2-[2-(aminomethyl)-3,3-difluoro-allyl]-7-[2-(1-methylpyrazol-4-yl)ethynyl]-[1,2,4]triazolo[4,3-a]pyridin-3-one trifluoroacetate]
IC50 [1]: 1 nM | IC50 [2]: > 100000 nM | IC50 [3]: 2500 nM | IC50 [4]: 6300 nM
